In US4471131A, “Novel silyl esters of N-phosphonomethylglycine” (Monsanto Company, priority 1983, dated 1984):

Tests used:
Assay in all cases: post-emergence herbicidal activity, greenhouse
Type in all cases: in vivo
Barnyardgrass = tested on: Barnyardgrass
Method in brief: (§1)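 Foliar spray, chamber, atomizer; plants 2–3 weeks old in topsoil pans; emulsifier ~0.4% by weight; rates as listed. Rating: injury relative to controls, ~2 and ~4 WAT.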

Common Lambsquarters = tested on: Common Lambsquarters
Method in brief: as §1

Hemp Sesbania = details: Table III
Method in brief: as §1

Pennsylvania Smartweed = tested on: Pennsylvania Smartweed
Method in brief: as §1

Rice = details: Table III
Method in brief: as §1

Soybean = details: Table III
Method in brief: as §1

Velvetleaf = tested on: Velvetleaf
Method in brief: as §1

[1] = Table II, 2 WAT, 5.6 kg/h, formulated in anhydrous tetrahydrofuran
[2] = Table II, 2 WAT, 11.2 kg/h, formulated in anhydrous tetrahydrofuran
[3] = Table II, 4 WAT, 5.6 kg/h, formulated in anhydrous tetrahydrofuran
[4] = Table II, 4 WAT, 11.2 kg/h, formulated in anhydrous tetrahydrofuran
[5] = Table III, 2 WAT, 1.1 kg/h, formulated in anhydrous tetrahydrofuran
[6] = Table III, 2 WAT, 5.6 kg/h, formulated in anhydrous tetrahydrofuran
[7] = Table III, 2 WAT, .28 kg/h, formulated in anhydrous tetrahydrofuran
[8] = Table III, 4 WAT, 1.1 kg/h, formulated in anhydrous tetrahydrofuran
[9] = Table III, 4 WAT, 5.6 kg/h, formulated in anhydrous tetrahydrofuran
[10] = Table III, 4 WAT, .28 kg/h, formulated in anhydrous tetrahydrofuran
[11] = 2 WAT, 1.1 kg/h, formulated in anhydrous tetrahydrofuran
[12] = 2 WAT, 5.6 kg/h, formulated in anhydrous tetrahydrofuran
[13] = 2 WAT, .28 kg/h, formulated in anhydrous tetrahydrofuran
[14] = 4 WAT, 1.1 kg/h, formulated in anhydrous tetrahydrofuran
[15] = 4 WAT, 5.6 kg/h, formulated in anhydrous tetrahydrofuran
[16] = 4 WAT, .28 kg/h, formulated in anhydrous tetrahydrofuran

Compound: CCOC(=O)CNCP(=O)(O)O[Si](c1ccccc1)(c1ccccc1)C(C)(C)C [Ex. 7, Glycine, N--((([(1,1-Dimethylethyl)Diphenylsilyl]Oxy)Hydroxyphosphinyl)Methyl)-,Ethyl Ester]
- Plant Response Index (K) (Barnyardgrass; Table II, 2 WAT, 5.6 kg/h): 3 (75-99% inhibition)
- Plant Response Index (K) (Barnyardgrass; [1]): 1 (25-49% inhibition)
- Plant Response Index (K) (Barnyardgrass; Table II, 2 WAT, 11.2 kg/h): 3 (75-99% inhibition)
- Plant Response Index (K) (Barnyardgrass; [2]): 2 (50-74% inhibition)
- Plant Response Index (K) (Barnyardgrass; Table II, 4 WAT, 5.6 kg/h): 3 (75-99% inhibition)
- Plant Response Index (K) (Barnyardgrass; [3]): 2 (50-74% inhibition)
- Plant Response Index (K) (Barnyardgrass; Table II, 4 WAT, 11.2 kg/h): 4 (100% inhibition)
- Plant Response Index (K) (Barnyardgrass; [4]): 3 (75-99% inhibition)
- Plant Response Index (K) (Barnyardgrass; Table III, 2 WAT, 1.1 kg/h): 3 (75-99% inhibition)
- Plant Response Index (K) (Barnyardgrass; [5]): 2 (50-74% inhibition)
- Plant Response Index (K) (Barnyardgrass; Table III, 2 WAT, 5.6 kg/h): 3 (75-99% inhibition)
- Plant Response Index (K) (Barnyardgrass; [6]): 3 (75-99% inhibition)
- Plant Response Index (K) (Barnyardgrass; Table III, 2 WAT, .28 kg/h): 2 (50-74% inhibition)
- Plant Response Index (K) (Barnyardgrass; [7]): 1 (25-49% inhibition)
- Plant Response Index (K) (Barnyardgrass; Table III, 4 WAT, 1.1 kg/h): 3 (75-99% inhibition)
- Plant Response Index (K) (Barnyardgrass; [8]): 2 (50-74% inhibition)
- Plant Response Index (K) (Barnyardgrass; Table III, 4 WAT, 5.6 kg/h): 3 (75-99% inhibition)
- Plant Response Index (K) (Barnyardgrass; [9]): 3 (75-99% inhibition)
- Plant Response Index (K) (Barnyardgrass; Table III, 4 WAT, .28 kg/h): 2 (50-74% inhibition)
- Plant Response Index (K) (Barnyardgrass; [10]): 1 (25-49% inhibition)
- Plant Response Index (E) (Common Lambsquarters; Table II, 2 WAT, 5.6 kg/h): 3 (75-99% inhibition)
- Plant Response Index (E) (Common Lambsquarters; [1]): 3 (75-99% inhibition)
- Plant Response Index (E) (Common Lambsquarters; Table II, 2 WAT, 11.2 kg/h): 4 (100% inhibition)
- Plant Response Index (E) (Common Lambsquarters; [2]): 4 (100% inhibition)
- Plant Response Index (E) (Common Lambsquarters; Table II, 4 WAT, 5.6 kg/h): 3 (75-99% inhibition)
- Plant Response Index (E) (Common Lambsquarters; [3]): 3 (75-99% inhibition)
- Plant Response Index (E) (Common Lambsquarters; Table II, 4 WAT, 11.2 kg/h): 4 (100% inhibition)
- Plant Response Index (E) (Common Lambsquarters; [4]): 4 (100% inhibition)
- Plant Response Index (E) (Common Lambsquarters; Table III, 2 WAT, 1.1 kg/h): 4 (100% inhibition)
- Plant Response Index (E) (Common Lambsquarters; [5]): 4 (100% inhibition)
- Plant Response Index (E) (Common Lambsquarters; Table III, 2 WAT, 5.6 kg/h): 3 (75-99% inhibition)
- Plant Response Index (E) (Common Lambsquarters; [6]): 4 (100% inhibition)
- Plant Response Index (E) (Common Lambsquarters; Table III, 2 WAT, .28 kg/h): 3 (75-99% inhibition)
- Plant Response Index (E) (Common Lambsquarters; [7]): 2 (50-74% inhibition)
- Plant Response Index (E) (Common Lambsquarters; Table III, 4 WAT, 1.1 kg/h): 4 (100% inhibition)
- Plant Response Index (E) (Common Lambsquarters; [8]): 4 (100% inhibition)
- Plant Response Index (E) (Common Lambsquarters; Table III, 4 WAT, 5.6 kg/h): 3 (75-99% inhibition)
- Plant Response Index (E) (Common Lambsquarters; [9]): 4 (100% inhibition)
- Plant Response Index (E) (Common Lambsquarters; Table III, 4 WAT, .28 kg/h): 3 (75-99% inhibition)
- Plant Response Index (E) (Common Lambsquarters; [10]): 3 (75-99% inhibition)
- Plant Response Index (R) (Hemp Sesbania; 2 WAT, 1.1 kg/h): 3 (75-99% inhibition)
- Plant Response Index (R) (Hemp Sesbania; [11]): 2 (50-74% inhibition)
- Plant Response Index (R) (Hemp Sesbania; 2 WAT, 5.6 kg/h): 1 (25-49% inhibition)
- Plant Response Index (R) (Hemp Sesbania; [12]): 1 (25-49% inhibition)
- Plant Response Index (R) (Hemp Sesbania; 2 WAT, .28 kg/h): 1 (25-49% inhibition)
- Plant Response Index (R) (Hemp Sesbania; [13]): 0 (0-24% inhibition)
- Plant Response Index (R) (Hemp Sesbania; 4 WAT, 1.1 kg/h): 4 (100% inhibition)
- Plant Response Index (R) (Hemp Sesbania; [14]): 2 (50-74% inhibition)
- Plant Response Index (R) (Hemp Sesbania; 4 WAT, 5.6 kg/h): 2 (50-74% inhibition)
- Plant Response Index (R) (Hemp Sesbania; [15]): 1 (25-49% inhibition)
- Plant Response Index (R) (Hemp Sesbania; 4 WAT, .28 kg/h): 1 (25-49% inhibition)
- Plant Response Index (R) (Hemp Sesbania; [16]): 0 (0-24% inhibition)
- Plant Response Index (F) (Pennsylvania Smartweed; Table II, 2 WAT, 5.6 kg/h): 2 (50-74% inhibition)
- Plant Response Index (F) (Pennsylvania Smartweed; [1]): 1 (25-49% inhibition)
- Plant Response Index (F) (Pennsylvania Smartweed; Table II, 2 WAT, 11.2 kg/h): 2 (50-74% inhibition)
- Plant Response Index (F) (Pennsylvania Smartweed; [2]): 1 (25-49% inhibition)
- Plant Response Index (F) (Pennsylvania Smartweed; Table II, 4 WAT, 5.6 kg/h): 4 (100% inhibition)
- Plant Response Index (F) (Pennsylvania Smartweed; [3]): 1 (25-49% inhibition)
- Plant Response Index (F) (Pennsylvania Smartweed; Table II, 4 WAT, 11.2 kg/h): 2 (50-74% inhibition)
- Plant Response Index (F) (Pennsylvania Smartweed; [4]): 4 (100% inhibition)
- Plant Response Index (F) (Pennsylvania Smartweed; Table III, 2 WAT, 1.1 kg/h): 3 (75-99% inhibition)
- Plant Response Index (F) (Pennsylvania Smartweed; [5]): 4 (100% inhibition)
- Plant Response Index (F) (Pennsylvania Smartweed; Table III, 2 WAT, 5.6 kg/h): 2 (50-74% inhibition)
- Plant Response Index (F) (Pennsylvania Smartweed; [6]): 4 (100% inhibition)
- Plant Response Index (F) (Pennsylvania Smartweed; Table III, 2 WAT, .28 kg/h): 3 (75-99% inhibition)
- Plant Response Index (F) (Pennsylvania Smartweed; [7]): 2 (50-74% inhibition)
- Plant Response Index (F) (Pennsylvania Smartweed; Table III, 4 WAT, 1.1 kg/h): 3 (75-99% inhibition)
- Plant Response Index (F) (Pennsylvania Smartweed; [8]): 4 (100% inhibition)
- Plant Response Index (F) (Pennsylvania Smartweed; Table III, 4 WAT, 5.6 kg/h): 3 (75-99% inhibition)
- Plant Response Index (F) (Pennsylvania Smartweed; [9]): 4 (100% inhibition)
- Plant Response Index (F) (Pennsylvania Smartweed; Table III, 4 WAT, .28 kg/h): 3 (75-99% inhibition)
- Plant Response Index (F) (Pennsylvania Smartweed; [10]): 2 (50-74% inhibition)
- Plant Response Index (O) (Rice; 2 WAT, 1.1 kg/h): 2 (50-74% inhibition)
- Plant Response Index (O) (Rice; [11]): 1 (25-49% inhibition)
- Plant Response Index (O) (Rice; 2 WAT, 5.6 kg/h): 2 (50-74% inhibition)
- Plant Response Index (O) (Rice; [12]): 3 (75-99% inhibition)
- Plant Response Index (O) (Rice; 2 WAT, .28 kg/h): 2 (50-74% inhibition)
- Plant Response Index (O) (Rice; [13]): 1 (25-49% inhibition)
- Plant Response Index (O) (Rice; 4 WAT, 1.1 kg/h): 3 (75-99% inhibition)
- Plant Response Index (O) (Rice; [14]): 1 (25-49% inhibition)
- Plant Response Index (O) (Rice; 4 WAT, 5.6 kg/h): 3 (75-99% inhibition)
- Plant Response Index (O) (Rice; [15]): 3 (75-99% inhibition)
- Plant Response Index (O) (Rice; 4 WAT, .28 kg/h): 1 (25-49% inhibition)
- Plant Response Index (O) (Rice; [16]): 0 (0-24% inhibition)
- Plant Response Index (L) (Soybean; 2 WAT, 1.1 kg/h): 2 (50-74% inhibition)
- Plant Response Index (L) (Soybean; [11]): 1 (25-49% inhibition)
- Plant Response Index (L) (Soybean; 2 WAT, 5.6 kg/h): 2 (50-74% inhibition)
- Plant Response Index (L) (Soybean; [12]): 2 (50-74% inhibition)
- Plant Response Index (L) (Soybean; 2 WAT, .28 kg/h): 0 (0-24% inhibition)
- Plant Response Index (L) (Soybean; [13]): 1 (25-49% inhibition)
- Plant Response Index (L) (Soybean; 4 WAT, 1.1 kg/h): 1 (25-49% inhibition)
- Plant Response Index (L) (Soybean; [14]): 1 (25-49% inhibition)
- Plant Response Index (L) (Soybean; 4 WAT, 5.6 kg/h): 1 (25-49% inhibition)
- Plant Response Index (L) (Soybean; [15]): 2 (50-74% inhibition)
- Plant Response Index (L) (Soybean; 4 WAT, .28 kg/h): 0 (0-24% inhibition)
- Plant Response Index (L) (Soybean; [16]): 1 (25-49% inhibition)
- Plant Response Index (C) (Velvetleaf; Table II, 2 WAT, 5.6 kg/h): 2 (50-74% inhibition)
- Plant Response Index (C) (Velvetleaf; [1]): 1 (25-49% inhibition)
- Plant Response Index (C) (Velvetleaf; Table II, 2 WAT, 11.2 kg/h): 3 (75-99% inhibition)
- Plant Response Index (C) (Velvetleaf; [2]): 1 (25-49% inhibition)
- Plant Response Index (C) (Velvetleaf; Table II, 4 WAT, 5.6 kg/h): 3 (75-99% inhibition)
- Plant Response Index (C) (Velvetleaf; [3]): 2 (50-74% inhibition)
- Plant Response Index (C) (Velvetleaf; Table II, 4 WAT, 11.2 kg/h): 3 (75-99% inhibition)
- Plant Response Index (C) (Velvetleaf; [4]): 1 (25-49% inhibition)
- Plant Response Index (C) (Velvetleaf; Table III, 2 WAT, 1.1 kg/h): 1 (25-49% inhibition)
- Plant Response Index (C) (Velvetleaf; [5]): 2 (50-74% inhibition)
- Plant Response Index (C) (Velvetleaf; Table III, 2 WAT, 5.6 kg/h): 2 (50-74% inhibition)
- Plant Response Index (C) (Velvetleaf; [6]): 2 (50-74% inhibition)
- Plant Response Index (C) (Velvetleaf; Table III, 2 WAT, .28 kg/h): 1 (25-49% inhibition)
- Plant Response Index (C) (Velvetleaf; [7]): 1 (25-49% inhibition)
- Plant Response Index (C) (Velvetleaf; Table III, 4 WAT, 1.1 kg/h): 1 (25-49% inhibition)
- Plant Response Index (C) (Velvetleaf; [8]): 2 (50-74% inhibition)
- Plant Response Index (C) (Velvetleaf; Table III, 4 WAT, 5.6 kg/h): 2 (50-74% inhibition)
- Plant Response Index (C) (Velvetleaf; [9]): 3 (75-99% inhibition)
- Plant Response Index (C) (Velvetleaf; Table III, 4 WAT, .28 kg/h): 1 (25-49% inhibition)
- Plant Response Index (C) (Velvetleaf; [10]): 1 (25-49% inhibition)
